Test results from PubChem BioAssay AID1996.
Converted amounts (≈) assume the structure as drawn.

Conditions: buffer; pH 7.4; 200.0 µM

Row | Compound | solubility kinetic [µg/mL]
1 | O=C(Nc1cccc(NC(=O)c2cccs2)c1)c1ccc(F)cc1 | < 0.4
2 | Cc1nccn1CCC(=O)Nc1ccc(Cl)cc1 | > 39.6
3 | CC(C)n1cc(NC(=O)COc2ccccc2Cl)cn1 | > 44.1
4 | CC(=O)Nc1ccc(N/C=C/C(=O)c2ccc(C)cc2)cc1 | 3.2 (≈ 10.9 µM)
5 | CC(C)NS(=O)(=O)c1ccc(OCC(=O)NC(C)c2ccccc2)cc1 (stereo unspecified) | 53.1 (≈ 141 µM)
6 | CCN(CC)CCNS(=O)(=O)c1ccc(/C=C/C(=O)O)cc1 | 41 (≈ 126 µM)
7 | Cc1ccc(CNC(=O)CCCc2c[nH]c3ccccc23)cc1 | 17.6 (≈ 57.4 µM)
8 | O=C(COC(=O)C1(c2cccc(F)c2)CCCC1)NCc1cccs1 | 16.2 (≈ 44.8 µM)
9 | Cc1cccc2cc(-c3nc4ccc(C(=O)O)cc4[nH]3)c(=O)oc12 | 26.9 (≈ 84 µM)
10 | CC1CN(C(=O)COC(=O)c2cccc(S(=O)(=O)N3CCc4ccccc43)c2)CC(C)O1 (stereo unspecified) | 15.3 (≈ 33.4 µM)
11 | c1ccc(NC2=NCCS2)cc1 | 23.5 (≈ 132 µM)
12 | Cc1ccc2c(c1)c1c3n2CCN(CC(N)=O)C3CCC1 (stereo unspecified) | 1.7 (≈ 6 µM)
13 | Cc1cc(F)ccc1NC(=O)C1CSC2(C)CCC(=O)N12 (stereo unspecified) | > 46.3
14 | C/C(=C\C(=O)c1sccc1Cl)N(C)C | > 34.5
15 | COc1cc(OC)cc(C(=O)O/N=C(\N)c2cccc(C)c2)c1 | 6.2 (≈ 19.7 µM)
16 | Cc1cc(C)cc(NC(=O)C2CCN(c3cnccn3)CC2)c1 | 13.7 (≈ 44.1 µM)
17 | CCn1c2ccccc2c2cc(NC(=O)C(=O)N3CCOCC3)ccc21 | 10.1 (≈ 28.7 µM)
18 | Cc1cc(C)cc(NC(=O)CN2CCC(C(=O)c3ccccc3)CC2)c1 | 16.5 (≈ 47.1 µM)
19 | COC(CNC(=O)c1cccnc1)OC | 26.4 (≈ 126 µM)
20 | CCc1c(C)sc(NC(=S)Nc2cccnc2)c1C(=O)OC | > 50.3
21 | CC(C)Cn1c(N)c(C(=O)COC(=O)c2ccccc2C(=O)c2ccccc2)c(=O)n(C)c1=O | 3.5 (≈ 7.55 µM)
22 | O=c1[nH]sc2cc(F)ccc12 | 22.7 (≈ 134 µM)
23 | CC1CCN(C(=O)c2ccc(NC(=O)c3cccs3)cc2)CC1 | 44.7 (≈ 136 µM)
24 | O=C(CSc1ccc(F)cc1)NCCc1ccc(Cl)cc1 | 8.6 (≈ 26.6 µM)
25 | O=C(Nc1ccccc1N1CCOCC1)c1ccc2c(c1)OCO2 | 4.7 (≈ 14.4 µM)

Row | Compound | solubility kinetic [µg/mL]
26 | CCN(CC)C(C(=O)NC1CCCCC1)c1ccc(C)cc1 (stereo unspecified) | > 45.4
27 | CC(C)CC(=O)Nc1ccc(S(=O)(=O)Nc2nccs2)cc1 | > 50.9
28 | Cc1cc(C)cc(NC(=S)N(C)C)c1 | 30.7 (≈ 147 µM)
29 | Clc1ccccc1C(c1ccccc1)(c1ccccc1)n1ccnc1 | 3.7 (≈ 10.7 µM)
30 | Nc1ncccc1OCc1ccc(Cl)c(Cl)c1 | 29.7 (≈ 110 µM)
31 | CC(=O)N1CCN(CC(O)Cn2c3ccccc3c3ccccc32)CC1 (stereo unspecified) | > 52.7
32 | CC(=O)c1ccc(NC(=O)N2CCc3ccccc3C2)cc1 | 34.3 (≈ 117 µM)
33 | O=C(O)C1CCCCC1C(=O)NC1C2CC3CC(C2)CC1C3 (stereo unspecified) | 42.4 (≈ 139 µM)
34 | COc1ccc(C(=O)Nc2cccc3nc(C)ccc23)cc1OC | 16.6 (≈ 51.5 µM)
35 | CC1(NC(=O)Nc2cccc(Br)c2)CCS(=O)(=O)C1 (stereo unspecified) | > 52.1
36 | Nc1ccc(CN2CCOCC2)cc1 | > 28.8
37 | COc1ccccc1N(C)S(=O)(=O)c1ccc(C(=O)Nc2ccc(C(N)=O)cc2)cc1 | 6.1 (≈ 13.9 µM)
38 | C=C[C@]1(C)C[C@@H](OC(=O)CSCCN(CC)CC)[C@]2(C)C(C)CC[C@]3(CCC(=O)[C@H]32)[C@@H](C)[C@@H]1O (stereo partly specified) | 64.9 (≈ 131 µM)
39 | S=C(Nc1ccc(Cl)cc1Cl)N1CCCC1 | 8.6 (≈ 31.2 µM)
40 | O=C1COc2ccc(NC(=O)c3ccccc3C(=O)O)cc2N1 | 40.5 (≈ 130 µM)
41 | CCOc1ccccc1N=Cc1c(O)c2ccccc2oc1=O | < 0.7
42 | C=CCc1ccccc1Oc1cc(F)nc(N)n1 | 27.7 (≈ 113 µM)
43 | Cc1cc(C)c(NC(=O)CC(=O)c2ccccc2)c(Cl)c1 | 3.5 (≈ 11.6 µM)
44 | Cc1ccc(Cn2c(N)nc3ccccc32)cc1 | 23.8 (≈ 100 µM)
45 | Cc1ccc(NC(=O)c2ccc3c(c2)OCCO3)nc1 | > 40.5
46 | O=C1NC(=O)/C(=C/c2ccccc2Cl)N1 | 17.8 (≈ 80 µM)
47 | CCCN1CCN(C(=O)c2ccc3nc(CC)c(CC)nc3c2)CC1 | > 51.1
48 | CN(c1ccccc1)c1ccc([N+](=O)[O-])c2nonc12 | 2.1 (≈ 7.77 µM)
49 | Cc1ccc2c(c1)C(=C(C#N)C#N)C(=O)N2CCN1CCOCC1 | 48.3 (≈ 150 µM)
50 | COc1ccc(-n2c(C)c(C)c3c(NCCCN(C)C)ncnc32)cc1 | > 53

Row | Compound | solubility kinetic [µg/mL]
51 | Cc1ccc2c(c1)C(=O)C(=O)N2CC1COc2ccccc2O1 (stereo unspecified) | 19.5 (≈ 63 µM)
52 | CC1CCc2c(sc(NC(=O)COC(=O)C3CCCO3)c2C#N)C1 (stereo unspecified) | 34.2 (≈ 98.2 µM)
53 | Nc1ccc(S(=O)(=O)[O-])cn1.[Na+] | > 29.4
54 | CC(=O)O/N=C/c1c(C)c(C=O)n2ccccc12 | > 36.6
55 | O=C(COC(=O)/C=C/c1ccc(F)cc1)NCC1CCCO1 (stereo unspecified) | > 46.1
56 | CSc1ncc(CO)n1Cc1ccccc1 | > 35.1
57 | CCS(=O)(=O)N1CCC(N2CCN(c3ccccc3)CC2)CC1 | 49.6 (≈ 147 µM)
58 | Cc1ccc(OC(=O)CCC(=O)Nc2ccc(C)c(C)c2)cc1 | 43.2 (≈ 139 µM)
59 | CCCc1nc2ccccc2n1C(=S)SC | 12.3 (≈ 49.1 µM)
60 | Cc1ccc(NC(=O)C(=O)NCCCN2CCOCC2)c(C)c1 | > 47.9
61 | O=C1CC(c2ccccc2)=Nc2ccc(Br)cc2N1 | 0.9 (≈ 2.86 µM)
62 | CC(=O)NC(C(=O)N1CCC(c2nc3ccccc3s2)CC1)C(C)C (stereo unspecified) | 51.1 (≈ 142 µM)
63 | CC(CC12CC3CC(CC(C3)C1)C2)NCc1ccccc1O.Cl (stereo unspecified) | 38.5
64 | Cc1ccc(C(=O)O/N=C(\N)Cc2cccc3ccccc23)cc1 | 0.5 (≈ 1.57 µM)
65 | Cc1noc2ncnc(N3CCN(c4ccc(F)cc4)CC3)c12 | 1.7 (≈ 5.43 µM)
66 | Cc1cc(C(=O)COC(=O)/C=C/c2ccc(F)cc2)c(C)n1C | 6.2 (≈ 19.7 µM)
67 | CCOc1ccccc1C(=O)NC1CCN(Cc2ccccc2)CC1 | 36.8 (≈ 109 µM)
68 | CN(C)C(=O)CN1CCN(Cc2nc(CC3CC3)no2)CC1 | > 46.1
69 | Cc1ccsc1C(=O)OCC(=O)Nc1cccc(F)c1 | 3.4 (≈ 11.6 µM)
70 | CCOC(=O)N1CCC(NC(=O)CCc2ccccc2)CC1 | > 45.7
71 | C=CCNC(=O)COC(=O)c1cccnc1Nc1ccccc1F | 17.9 (≈ 54.4 µM)
72 | COc1ccccc1N1CN(Cc2ccccc2)CNC1=S | > 47
73 | COc1ccc(C/C(N)=N/OC(=O)CCc2ccccc2)cc1 | 7.7 (≈ 24.7 µM)
74 | COc1ccc(NC(=O)Nc2cccc(Cl)c2Cl)c(OC)n1 | < 0.2
75 | COc1ccc(S(=O)(=O)NCCc2ccccn2)cc1 | > 43.9

Row | Compound | solubility kinetic [µg/mL]
76 | CCOc1ccc(C(=O)NCc2ccc3c(c2)OCO3)cc1OCC | 1.2 (≈ 3.49 µM)
77 | O=C(NC1CCCc2ccccc21)c1ccc2c(c1)OCO2 (stereo unspecified) | 11.6 (≈ 39.3 µM)
78 | CC(=O)c1ccc(NC(=S)NCCCN2CCOCC2)cc1 | > 48.2
79 | COc1ccc(OC)c(NC(=O)Cn2cc(C=O)c3ccccc32)c1 | 2.5 (≈ 7.39 µM)
80 | CCc1cc2c(=O)n(-c3ccccc3)c(SCC(N)=O)nc2s1 | 2.8 (≈ 8.11 µM)
81 | CC(NC(=O)CN1CCOCC1)c1ccccc1 (stereo unspecified) | > 37.2
82 | CC1CCCCC12NC(=O)N(CC(=O)OCc1c(F)cccc1Cl)C2=O (stereo unspecified) | 53.3 (≈ 139 µM)
83 | COc1ccc(NC(=O)c2cc(C)no2)cc1OC | > 39.3
84 | N#CCSc1ncnc2ccccc12 | 28.1 (≈ 140 µM)
85 | COc1cccc(OC)c1C(=O)OCC(=O)NCc1ccco1 | > 47.9
86 | Cc1cc(C)cc(C(=O)N2CCN(c3ccccn3)CC2)c1 | 42.7 (≈ 145 µM)
87 | CC(NC(=O)c1ccco1)C(=O)N1CC=C(c2ccccc2)CC1 (stereo unspecified) | > 48.7
88 | CCOc1ccc(S(=O)(=O)NC2CCCCCC2)cc1 | < 0.6
89 | NC(=O)c1cc(-c2csc(-c3cccnc3)n2)ccc1O | 5.2 (≈ 17.5 µM)
90 | O=C1CCN(C(=S)NCCc2ccccc2)CC1 | > 39.4
91 | Cc1cccc(C)c1OCC1CNC(=O)O1 (stereo unspecified) | 24.8 (≈ 112 µM)
92 | COc1ccc(C)cc1NC(=S)N1CCOCC1 | > 40
93 | CC(=O)c1ccc(NC(=O)C(C)NCc2ccc(Cl)cc2)cc1 (stereo unspecified) | 42.9 (≈ 130 µM)
94 | CC(=O)N1CCN(c2nc3ccc(Br)cc3s2)CC1 | 7.9 (≈ 23.2 µM)
95 | CCc1oc(C(=O)OC)cc1CSC(=N)N.Cl | 41.4
96 | CNC(=O)N1c2ccccc2C=Cc2ccccc21 | > 37.5
97 | Cc1ccc(/C([O-])=C(/C(=S)NCc2ccccc2)[n+]2ccccc2)cc1[N+](=O)[O-] | 12 (≈ 29.6 µM)
98 | CCN(CC)c1nc(-c2ccccc2)nc2ccccc12.Cl | 0.5
99 | Cc1ccc(NC(=O)C(C)NC(=O)OCc2ccccc2)cc1C (stereo unspecified) | 2.4 (≈ 7.35 µM)
100 | O=c1[nH]cnc2c1c(-c1ccccc1)cn2-c1ccccc1 | < 0.2

Row | Compound | solubility kinetic [µg/mL]
101 | COc1ccccc1NC(=O)C(C)Sc1nccn1C (stereo unspecified) | > 43.7
102 | CC(C)(C)c1ccc(/C=C/C(=O)Nc2cccnc2)cc1 | 1 (≈ 3.57 µM)
103 | CC1=CC=CC2=NC(=O)CC(C)(C(=O)O)N12 (stereo unspecified) | > 33
104 | N#CN/C(=N\S(=O)(=O)c1ccccc1)c1ccccc1 | 32.3 (≈ 113 µM)
105 | O=C(NC(=S)Nc1cccc([N+](=O)[O-])c1)C1CCCCC1 | < 0.2
106 | CCCCOC(=O)C1=C(C)NC(=O)NC1c1ccccc1 (stereo unspecified) | 13.5 (≈ 46.8 µM)
107 | CCC(C(=O)Nc1ccc(N2CCOCC2)c(S(=O)(=O)Nc2ccccc2OC)c1)c1ccccc1 (stereo unspecified) | 7.4 (≈ 14.5 µM)
108 | CN(C)c1nc(NCc2ccccc2)nc(SCC(N)=O)n1 | 43.7 (≈ 137 µM)
109 | COc1cccc(NC(=O)C2C(c3ccccc3)C2(Cl)Cl)c1 (stereo unspecified) | 7 (≈ 20.8 µM)
110 | O=C1CCC(C(=O)OCc2nnc(-c3ccccc3)o2)=NN1 | > 45
111 | CCOC(=O)c1ccc(NC(=O)c2nc(SC)ncc2Cl)cc1 | 1 (≈ 2.84 µM)
112 | Clc1ccc(Nc2ccc3ccccc3n2)cc1 | < 0.3
113 | COc1cc(S(=O)(=O)NCc2ccccn2)ccc1Cl | > 46.9
114 | COc1ccc(C(=O)NC2CCCCCCC2)cc1OC | 15.2 (≈ 52.2 µM)
115 | COCCNC(=O)/C(C#N)=C/c1ccc(C(=O)O)cc1 | > 41.1
116 | CCn1cc(CNC(=S)Nc2cccc3ccccc23)cn1 | > 46.6
117 | O=C(NCCCN1CCCC1=O)c1ccccc1OCc1ccc(Cl)cc1Cl | 54.7 (≈ 130 µM)
118 | CCOC(=O)Cc1csc(NC(=O)c2cc3ccccc3o2)n1 | 10.4 (≈ 31.5 µM)
119 | O=C(NCc1ccc(F)cc1)c1cccnc1C(=O)O | > 41.1
120 | Cc1ccc(C(=O)O)cc1N1CCCC1=O | > 32.9
121 | CCCCN1C(=O)c2ccc(C(=O)NCc3ccco3)cc2C1=O | 17.9 (≈ 54.8 µM)
